What was measured:
MV4-11 [1] = assay: Cytotoxicity against human MV4-11 cells assessed as cell growth inhibition incubated for 72 hrs by Cell Titer-Glo assay; format: functional, cell-based; conditions: MV4-11, 72 h
[2] = Cytotoxicity against human L02 cells assessed as cell growth inhibition incubated for 72 hrs by Cell Titer-Glo assay
[3] = Selectivity index, ratio of IC50 for human L02 cells to IC50 for human MV4-11 cells; conditions: L02 cells and MV4-11 cells
MV4-11 [4] = assay: Induction of apoptosis in human MV4-11 cells assessed as viable cells at 0.1 uM incubated for 24 hrs by Annexin V-FITC/PI staining based flow cytometry (reference value: 98.58 to 99.04%); format: functional; conditions: read-out: Activity
MV4-11 [5] = assay: Induction of apoptosis in human MV4-11 cells assessed as early apoptotic cells at 0.1 uM incubated for 24 hrs by Annexin V-FITC/PI staining based flow cytometry (reference value: 0.015 to 0.39 %); format: functional
MV4-11 [6] = assay: Induction of apoptosis in human MV4-11 cells assessed as late apoptotic cells at 0.1 uM incubated for 24 hrs by Annexin V-FITC/PI staining based flow cytometry (reference value: 0.53 to 1.03 %); format: functional
MV4-11 [7] = assay: Induction of apoptosis in human MV4-11 cells assessed as necrotic cells at 0.1 uM incubated for 24 hrs by Annexin V-FITC/PI staining based flow cytometry (reference value: 0.05 to 0.24 %); format: functional
MV4-11 [8] = assay: Induction of cell cycle arrest in human MV4-11 cells assessed as accumulation of cells at G0/G1 phase at 0.1 uM incubated for 24 hrs by PI staining based flow cytometry (reference value: 57.44 %); format: functional
MV4-11 [9] = assay: Induction of cell cycle arrest in human MV4-11 cells assessed as accumulation of cells at S phase at 0.1 uM incubated for 24 hrs by PI staining based flow cytometry (reference value: 27.58 %); format: functional
MV4-11 [10] = assay: Induction of cell cycle arrest in human MV4-11 cells assessed as accumulation of cells at G2/M phase at 0.1 uM incubated for 24 hrs by PI staining based flow cytometry (reference value: 18.56 %); format: functional
MV4-11 [11] = assay: Downregulation of FLT-3 protein expression in human MV4-11 cells incubated for 24 hrs by Western blot analysis; format: functional, cell-based; conditions: dose 100-400 nM

Structure (SMILES)	IC50 (MV4-11 [1]) [µM]	IC50 at 72 h [2] [µM]	selectivity ratio [3]	viability at 0.1 µM (MV4-11 [4]) [%]	Activity (MV4-11 [5]) [%]	Activity (MV4-11 [6]) [%]	Activity (MV4-11 [7]) [%]	Activity (MV4-11 [8]) [%]	Activity (MV4-11 [9]) [%]	Activity (MV4-11 [10]) [%]	Activity (MV4-11 [11])
COc1c(O)c(-c2c[nH]c3ccccc23)c(CC=C(C)C)c(OC)c1-c1c[nH]c2ccccc12	1.8	17	9								
COc1c(OC)c(-c2c[nH]c3ccc(OCCO[C@@H]4O[C@H](CO)[C@@H](O)[C@H](O)[C@H]4O)cc23)c(OC)c(OC)c1-c1c[nH]c2ccccc12	0.26	> 100	> 380	78	15.78	3.67	0	52.91	30.68	17.42	Dose-Dependent Effect
COc1c(OC)c(-c2c[nH]c3ccc(OCC(=O)c4ccccc4)cc23)c(OC)c(OC)c1-c1c[nH]c2ccccc12	1.3	> 100	> 74								
COc1ccc2[nH]cc(-c3c(OC)c(OC)c(-c4c[nH]c5ccccc45)c(OC)c3OC)c2c1	6.5	> 100	> 15								
COc1c(OC)c(-c2c[nH]c3ccc(O)cc23)c(OC)c(OC)c1-c1c[nH]c2ccccc12	12	> 100	> 8								
COc1c(O)c(-c2c[nH]c3ccccc23)c2c(c1-c1c[nH]c3ccccc13)OC(C)(C)C=C2	1.2	11	9								
COc1c(OC)c(-c2c[nH]c3ccc(OCC(=O)c4ccc(Cl)c(Cl)c4)cc23)c(OC)c(OC)c1-c1c[nH]c2ccccc12	0.99	> 100	> 100								
COc1c(OC)c(-c2cn(CCN3CCOCC3)c3ccccc23)c(OC)c(OC)c1-c1c[nH]c2ccccc12	0.48	> 100	> 210								
COc1c(OC)c(-c2cn(C3CCCC3)c3ccccc23)c(OC)c(OC)c1-c1c[nH]c2ccccc12	0.84	> 100	> 120								
CCOc1ccc2[nH]cc(-c3c(OC)c(OC)c(-c4c[nH]c5ccccc45)c(OC)c3OC)c2c1	0.2	> 100	> 500								
COc1c(OC)c(-c2c[nH]c3ccccc23)c(OC)c(OC)c1-c1c[nH]c2ccccc12	5.9	> 100	> 17								
COc1c(OC)c(-c2c[nH]c3ccc(OC4CCCC4)cc23)c(OC)c(OC)c1-c1c[nH]c2ccccc12	0.14	> 100	> 710	74.7	19.09	4.36	0	49.99	36.06	15.55	Dose-Dependent Effect
COc1ccc2[nH]cc(-c3c(OC)c(OC)c(-c4c[nH]c5ccc(O)cc45)c(OC)c3OC)c2c1	1.3	> 100	> 75								
COc1c(OC)c(-c2c[nH]c3ccc(OCCN4CCOCC4)cc23)c(OC)c(OC)c1-c1c[nH]c2ccccc12	0.45	> 100	> 220								
